{"source": "patent US9622997B2", "about": "“Methods for treating insomnia” (Lynn Health Science Institute, Inc., priority 2012, dated 2017)", "key": {"[1]": {"system": "healthy subjects subjected to a transient insomnia protocol", "experiment": "Transient insomnia protocol (2 hour phase advance), double blind cross-over, overnight PSG and morning self-report", "assay_type": "in vivo, human", "excerpt": "Twenty-four (24) healthy subjects aged 18-65 years (inclusive) with no insomnia were recruited for this study. […] Individuals were also excluded if they had excessive daytime sleepiness indicated by an Epworth Sleepiness Score (ESS) of >9 or a chronic sleep disturbance indicated by a Pittsburgh Sleep Questionnaire Inventory (PSQI) score of >5. Shift workers or subjects with irregular sleep schedules were excluded. Women of child-bearing potential who used medically acceptable methods of contraception were allowed to participate. Subjects were excluded if they had any of the following: BMI≧30; symptoms of gastroesophageal reflux such as heartburn on a regular basis; history of allergic reaction or hyper-sensitivity to benzodiazepines or CNS depressants; or evidence of any clinically significant medical abnormality or chronic disease indicated on laboratory screen or physical exam. Subjects were also excluded if they had any of the following: a history of alcohol or drug abuse; consume >2 alcoholic beverages on a single day and >14 beverages weekly; or >5 cigarettes a day and could not forego smoking for up to 14 hours while in the sleep lab. Participants abstained from over-the-counter medications within 7 days of the polysomnographic (hereinafter “PSG”) evaluation (except accepted birth control medication, NSAIDS/acetaminophen for infrequent pain not considered clinically significant). Participants abstained from alcohol for 24 hours and caffeine for 6 hours prior to each PSG evaluation. Eligible participants were required to report normal sleep patterns during the week before each PSG defined as a bedtime between 21:00 and 24:00 on at least 5 of 7 consecutive nights, with reported sleep duration between 7-9 hours, and no more than 2 naps a week.\nThe present study was a single-site study approved by Aspire Institutional Review Board. The study design was a double blind cross-over study. Subjects gave written informed consent prior to any study-related procedures. The study consisted of a screening session and two overnight PSGs. The treatments consisted of baclofen 20 mg and placebo. The screening session consisted of a medical screening visit to determine eligibility and safety for each subject. Eligible subjects were randomized into two treatment sequences based on a random permutation algorithm. One treatment sequence received baclofen 20 mg on the night of the first PSG, then placebo on the night of the second PSG. The other treatment sequence received placebo on the night of the first PSG, then baclofen 20 mg on the night of the second PSG. Subjects were given a 7 day sleep diary to complete immediately prior to the first sleep study. Subjects were given a second 7 day sleep diary to complete immediately prior to the second sleep study. Lights out was determined as two hours earlier than the subject's median habitual bedtime indicated in the diary prior to each PSG. Study drug (baclofen 20 mg or placebo) was administered 90 minutes prior to lights out.\nOn the PSG nights, respiratory effort and airflow, oxygen saturation, leg and chin EMGs were recorded in addition to the routine PSG measures to exclude subjects with sleep-related breathing disorders and periodic limb movement disorder. […] PSG measures consisted of the following: wake after sleep onset (WASO), total sleep time (TST), sleep onset latency (SOL), sleep efficiency (SE), percent sleep stage 1, percent sleep stage 2, percent sleep stages 3 and 4 combined, percent sleep REM. Self-report measures consisted of the following: subjective TST (sTST), subjective SOL (sSOL), subjective number of awakenings from sleep (sNAS), subjective sleep quality (sSQ). All PSGs were analyzed by one of the authors blinded to the treatment groups. […]"}, "normal participants": {"system": "normal participants", "details": "acute dose 40 mg; cited from earlier work"}, "[2]": {"details": "PSG measure, percentage of TST, baclofen 20 mg"}, "[3]": {"details": "PSG measure, baclofen 20 mg 90 minutes prior to lights out, n=20"}, "[4]": {"details": "baclofen 20 mg vs placebo, not significant"}, "[5]": {"details": "baclofen 20 mg vs placebo, p < 0.01"}, "[6]": {"details": "baclofen 20 mg vs placebo, p < 0.05"}, "[7]": {"details": "self-report, morning questionnaire, baclofen 20 mg"}}, "note": "Marks after values point to notes of the source that are not given here."}
{"smiles": "NCC(CC(=O)O)c1ccc(Cl)cc1", "note": "(centres unmarked) [Baclofen, 4-amino-3-(4-chlorophenyl)-butanoic acid]", "values": [{"measurement": "REM", "setting": "[1]; [2]", "result": "24.1 ± 1.3", "unit": "%"}, {"measurement": "Stage 1", "setting": "[1]; [2]", "result": "2.3 ± 0.3", "unit": "%"}, {"measurement": "Stage 2", "setting": "[1]; [2]", "result": "58.9 ± 2.0", "unit": "%"}, {"measurement": "Stage 3/4", "setting": "[1]; [2]", "result": "14.7 ± 1.4", "unit": "%"}, {"measurement": "SE", "setting": "[1]; [3]", "result": "90.6 ± 1.2", "unit": "%"}, {"measurement": "SOL", "setting": "[1]; [3]", "result": "19.4 ± 3.8", "unit": "min"}, {"measurement": "TST", "setting": "[1]; [3]", "result": "435.4 ± 5.8", "unit": "min"}, {"measurement": "WASO", "setting": "[1]; [3]", "result": "25.6 ± 4.0", "unit": "min"}, {"measurement": "SOL Absolute Change", "setting": "[1]; [4]", "result": -0.4, "unit": "min"}, {"measurement": "sSOL Absolute Change", "setting": "[1]; [4]", "result": -1.0, "unit": "min"}, {"measurement": "sTST Absolute Change", "setting": "[1]; [4]", "result": 0.3, "unit": "h"}, {"measurement": "REM Absolute Change", "setting": "[1]; baclofen 20 mg vs placebo, not significant (p=0.067)", "result": 3.5, "unit": "%"}, {"measurement": "Stage 2 Absolute Change", "setting": "[1]; baclofen 20 mg vs placebo, not significant (p=0.092)", "result": "−3.9", "unit": "%"}, {"measurement": "Stage 1 Absolute Change", "setting": "[1]; baclofen 20 mg vs placebo, p < 0.001", "result": "−1.8*** %"}, {"measurement": "TST Absolute Change", "setting": "[1]; [5]", "result": "27.7** min"}, {"measurement": "sNAS Absolute Change", "setting": "[1]; [5]", "result": "−1.3** #"}, {"measurement": "Stage 3/4 Absolute Change", "setting": "[1]; [6]", "result": "2.7* %"}, {"measurement": "WASO Absolute Change", "setting": "[1]; [6]", "result": "−28.4* min"}, {"measurement": "sSQ Absolute Change", "setting": "[1]; [6]", "result": "−0.5* scale 1-4"}, {"measurement": "baclofen data better than zolpidem (decrease in WASO, increase in SE)", "setting": "[1]; baclofen 20 mg vs zolpidem 10 mg (WASO 9.4 min, SE 3.7%), 2 hr phase advance", "result": "2-4 fold"}, {"measurement": "sSOL", "setting": "[1]; [7]", "result": "25.0 ± 4.1", "unit": "min"}, {"measurement": "sTST", "setting": "[1]; [7]", "result": "7.1 ± 0.2", "unit": "h"}, {"measurement": "sNAS", "setting": "[1]; self-report, number of awakenings, baclofen 20 mg", "result": "2.4 ± 0.4"}, {"measurement": "sSQ", "setting": "[1]; self-report, 1 = good, 2 = average, 3 = below average, 4 = poor, baclofen 20 mg", "result": "1.9 ± 0.2", "unit": "scale 1-4"}, {"measurement": "TST", "setting": "[1]; ↑ increase compared to placebo, 20 mg, 2 hour phase-advance, current study", "result": "↑ 27.7 min"}, {"measurement": "SOL", "setting": "[1]; ↓ decrease compared to placebo, NS, 20 mg, 2 hour phase-advance, current study", "result": "↓ 0.4^NS min"}, {"measurement": "wake after sleep onset (WASO), change vs placebo", "setting": "[1]; ↓ decrease compared to placebo, 20 mg, 2 hour phase-advance, current study", "result": "↓ 28.3 min"}, {"measurement": "ACT", "setting": "normal participants", "result": "no significant change"}, {"measurement": "postprandial reflux events", "setting": "normal participants", "result": "significant reduction"}]}
